Data set [1] has as its system Psendomonas aeruginosa. The experiment in a line: Minimum inhibitory concentration. Conditions: read-out: Minimum inhibitory concentration.
Data set [2] in a line: Solubility.
The subject of data set [3] is Mycobacterium avium. Put plainly: Minimum inhibitory concentration. Conditions: read-out: Minimum inhibitory concentration.
Excerpt: (§1) In the Table, N indicates Nutrient agar medium, GN Glycerine nutrient medium and PS Potato-sucrose agar medium.
GN: 4% glycerol nutrient agar
Data set [4] deals with Alternaria kikuchiana. Put plainly: Minimum inhibitory concentration. Conditions: PS: potato-sucrose agar, Na salt. The data set is classed as cell-based.
Data set [5] has as its system Staphylococcus epidermidis. Put plainly: Minimum inhibitory concentration. The note with it: read-out: Minimum inhibitory concentration.
Data set [6] has as its system Proteus vulgaris. Put plainly: Minimum inhibitory concentration. Conditions: read-out: Minimum inhibitory concentration.
Data set [7] has as its system Escherichia coli. The experiment in a line: Minimum inhibitory concentration. Conditions: read-out: Minimum inhibitory concentration.
Data set [8] deals with Klebsiella pneumoniae. Put plainly: Minimum inhibitory concentration. Conditions: read-out: Minimum inhibitory concentration.
Data set [9] concerns Micrococcus luteus. The experiment in a line: Minimum inhibitory concentration. Conditions: read-out: Minimum inhibitory concentration.
Excerpt: as §1
Data set [10] deals with Mycobacterium smegmatis. The experiment in a line: Minimum inhibitory concentration. The note with it: Mycolicibacterium smegmatis, read-out: Minimum inhibitory concentration.
Excerpt: as §1
GN: 4% glycerol nutrient agar
Data set [11] relates to Micrococcus flavus. Put plainly: Minimum inhibitory concentration. Conditions: read-out: Minimum inhibitory concentration.
The nature of data set [12]: Stability. Conditions: Na salt.
In data set [13] the test system is Mycobacterium phlei. The experiment in a line: Minimum inhibitory concentration. The note with it: Mycolicibacterium phlei, read-out: Minimum inhibitory concentration.
Excerpt: as §1
GN: 4% glycerol nutrient agar
Data set [14] can be described thus: Toxicity (LD50), mice, orally. Conditions: mouse, in vivo, po.
Data set [15] deals with Piricularia oryzae. The experiment in a line: microbe, parasite or virus in culture. The class given is cell-based. Conditions: read-out: Minimum inhibitory concentration.
Data set [16] has as its system Staphylococcus aureus. The experiment in a line: Minimum inhibitory concentration. The note with it: read-out: Minimum inhibitory concentration.
Data set [17] relates to Bacillus subtilis. The experiment in a line: Minimum inhibitory concentration. Conditions: read-out: Minimum inhibitory concentration.
In data set [18] the test system is Bacillus circulans. Put plainly: Minimum inhibitory concentration. Conditions: Paenibacillus illinoisensis, read-out: Minimum inhibitory concentration.
Data set [19] relates to Bacillus megaterium. The experiment in a line: Minimum inhibitory concentration. The note with it: Priestia megaterium, read-out: Minimum inhibitory concentration.

In brackets after ≈: the same amount, converted by molar mass. A value given as a limit tells only on which side of the number the result lay.

In general, LD50 refers to the dose at which mortality reaches 50%. Low readings indicate a more toxic substance, high ones a less toxic substance. As to `CCC(C(=O)O)C1CCC(C)C(C(C)C(O)C(C)C(=O)C(CC)C2OC3(C=CCC4(CCC(C)(C5CCC(O)(CC)C(C)O5)O4)O3)C(C)CC2C)O1` (stereo not shown) [SY-1 substance], the MIC in data set [1] was over 100 µg/mL; in data set [3] it was over 100 µg/mL; in data set [4] it was over 100 µg/mL; in [5], 50 µg/mL (≈ 68 µM); in data set [6], over 100 µg/mL; in data set [7], over 100 µg/mL. The MIC is over 100 µg/mL in data set [8]; 100 µg/mL (≈ 136 µM) in [9]; over 100 µg/mL in data set [10]; 100 µg/mL (≈ 136 µM) in [11]; over 100 µg/mL in [13]; over 100 µg/mL in data set [15]. For the same compound, the MIC in data set [16] came out at 100 µg/mL (≈ 136 µM); in data set [17] it was 100 µg/mL (≈ 136 µM); in [18], 12.5 µg/mL (≈ 17 µM); in [19], 50 µg/mL (≈ 68 µM). Further, the “Solubility in organic solvents” value in data set [2] (alcohols, acetates, chloroform, ether, carbon tetrachloride, benzene and n-hexane, Na salt) is “soluble”. Moreover, the “Solubility in various organic solvents” value in data set [2] (general statement for isolation by solvent extraction) is listed as “soluble in various organic solvents”. In addition, the Solubility in water result in [2] (water, Na salt) was “insoluble in water”. The figures for the Stability entry in data set [12] (pH 7-9) and in [12] (pH lower than 6) were “stable in pH 7-9” and “unstable in pH lower than 6”, respectively. This compound also yielded a 50% lethal dose (LD50) in [14] of 51 mg/kg.
